One assay deals with KRAS G12D (Homo sapiens, UniProt P01116, G12D). Kind of assay: GDP-GTP exchange assay (bodipy-GDP/GppNHp, SOS1), KRAS G12D. The format is biochemical. The conditions noted are these: 2.5 nM bodipy-loaded KRAS G12D, 4 h pre-incubation, 2 h reaction with GppNHp and SOS1; for certain compounds the most potent isomer is quoted; read-out: KRAS_G12D exchange assay IC50. An outline of the steps:
(§1)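 Bodipy-GDP-loaded KRAS G12D or G12V (2.5 nM) pre-incubated 4 h at r.t. with inhibitor in Hepes pH 7.5, 10 mM MgCl2, then exchange started with 500 μM GppNHp and 150 nM SOS1 (final); 2 h (G12D) or 3 h (G12V). Fluorescence at 485/520 nm; IC50 from four-parameter logistic fit.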

For another assay, the target named is KRAS G12V (Homo sapiens, UniProt P01116, G12V). Kind of assay: GDP-GTP exchange assay (bodipy-GDP/GppNHp, SOS1), KRAS G12V. The format is biochemical. Conditions: 2.5 nM bodipy-loaded KRAS G12V, 3 h incubation after adding GppNHp-SOS1; for certain compounds the most potent isomer is quoted; read-out: KRAS_G12V exchange assay IC50. The method, boiled down: as §1
Chain of KRAS G12V (P01116 1-188 isoform P01116-2 G12V): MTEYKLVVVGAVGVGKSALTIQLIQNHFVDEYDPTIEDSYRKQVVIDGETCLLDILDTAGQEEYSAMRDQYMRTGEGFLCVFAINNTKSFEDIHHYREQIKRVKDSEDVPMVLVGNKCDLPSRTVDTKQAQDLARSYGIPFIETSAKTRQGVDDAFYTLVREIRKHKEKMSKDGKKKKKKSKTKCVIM

Chain of KRAS G12D (P01116 1-188 isoform P01116-2 G12D): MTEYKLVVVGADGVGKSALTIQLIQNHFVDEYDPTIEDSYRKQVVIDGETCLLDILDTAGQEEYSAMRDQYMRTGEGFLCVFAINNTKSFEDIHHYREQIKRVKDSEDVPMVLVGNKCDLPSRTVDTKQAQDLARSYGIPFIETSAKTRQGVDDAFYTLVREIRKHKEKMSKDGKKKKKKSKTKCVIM

In the case of `Cc1nc2c(F)c(-c3cccc(Cl)c3Cl)c(CCC#N)cc2c2c1cc([C@H]1[C@H]3C[C@H](C[C@@H]3C(F)F)N1C(=O)C1CC1)n2[C@H]1[C@H]2CN[C@@H]1C2` (atropisomer, axis not shown; (Ra)) [Example 9, 3-((Ra)-1-((1R,4R,5S)-2-Azabicyclo[2.1.1]hexan-5-yl)-2-((1R,3R,4S,5S)-2-(cyclopropanecarbonyl)-5-(difluoromethyl)-2-azabicyclo[2.2.1]heptan-3-yl)-7-(2,3-dichlorophenyl)-6-fluoro-4-methyl-1H-pyrrolo[3,2-c]quinolin-8-yl)propanenitrile], the IC50 on KRAS G12D and at KRAS G12V was at most 100 nM in each case.

Regarding `Cc1nc2c(F)c(-c3cccc(Cl)c3Cl)c(CCC#N)cc2c2c1cc([C@H]1[C@H]3C[C@H](C[C@@H]3OC(F)F)N1C(=O)C1(F)CC1)n2[C@H]1[C@H]2CN[C@@H]1C2` (atropisomer, axis not shown; (Ra)) [Example 10, 3-((Ra)-1-((1R,4R,5S)-2-Azabicyclo[2.1.1]hexan-5-yl)-7-(2,3-dichlorophenyl)-2-((1R,3R,4R,5S)-5-(difluoromethoxy)-2-(1-fluorocyclopropane-1-carbonyl)-2-azabicyclo[2.2.1]heptan-3-yl)-6-fluoro-4-methyl-1H-pyrrolo[3,2-c]quinolin-8-yl)propanenitrile], the IC50 on KRAS G12D and on KRAS G12V was at most 100 nM each time.

`Cc1nc2c(F)c(-c3cccc(Cl)c3Cl)c(CCC#N)cc2c2c1cc([C@H]1[C@H]3C[C@H](C[C@@H]3OC3CC3)N1C(=O)C1CC1)n2[C@H]1[C@H]2CN[C@@H]1C2` [Example 36, 3-(1-((1R,4R,5S)-2-Azabicyclo[2.1.1]hexan-5-yl)-2-((1R,3R,4R,5S)-2-(cyclopropanecarbonyl)-5-cyclopropoxy-2-azabicyclo[2.2.1]heptan-3-yl)-7-(2,3-dichlorophenyl)-6-fluoro-4-methyl-1H-pyrrolo[3,2-c]quinolin-8-yl)propanenitrile]: the IC50 at KRAS G12D and on KRAS G12V was at most 100 nM in each case.

In the case of `Cc1nc2c(F)c(-c3cccc(Cl)c3Cl)c(CCC#N)cc2c2c1cc([C@H]1[C@H]3C[C@H](C[C@@H]3OC(F)(F)F)N1C(=O)C1CC1)n2[C@H]1[C@H]2CN[C@@H]1C2` (atropisomer, axis not shown; (Ra)) [Example 41, 3-((Ra)-1-((1R,4R,5S)-2-Azabicyclo[2.1.1]hexan-5-yl)-2-((1R,3R,4R,5S)-2-(cyclopropanecarbonyl)-5-(trifluoromethoxy)-2-azabicyclo[2.2.1]heptan-3-yl)-7-(2,3-dichlorophenyl)-6-fluoro-4-methyl-1H-pyrrolo[3,2-c]quinolin-8-yl)propanenitrile], the IC50 at KRAS G12D and at KRAS G12V was at most 100 nM throughout.

With `Cc1nc2c(F)c(-c3cccc(Cl)c3Cl)c(CCC#N)cc2c2c1cc([C@H]1[C@H]3C[C@H](C[C@@H]3OC(F)(F)F)N1C(=O)C1(F)CC1)n2[C@H]1[C@H]2CN[C@@H]1C2` (atropisomer, axis not shown; (Ra)) [Example 42, 3-((Ra)-1-((1R,4R,5S)-2-azabicyclo[2.1.1]hexan-5-yl)-7-(2,3-dichlorophenyl)-6-fluoro-2-((1R,3R,4R,5S)-2-(1-fluorocyclopropane-1-carbonyl)-5-(trifluoromethoxy)-2-azabicyclo[2.2.1]heptan-3-yl)-4-methyl-1H-pyrrolo[3,2-c]quinolin-8-yl)propanenitrile], the concentration for half-maximal inhibition (IC50) on KRAS G12D and at KRAS G12V was at most 100 nM each time.

Turning to `CO[C@H]1C[C@H]2C[C@@H]1[C@H](c1cc3c(C)nc4c(F)c(-c5cccc(Cl)c5Cl)c(CCC#N)cc4c3n1[C@H]1[C@H]3CN[C@@H]1C3)N2C(=O)C1CC1` [Example 15, 3-(1-((1R,4R,5S)-2-azabicyclo[2.1.1]hexan-5-yl)-2-((1R,3R,4R,5S)-2-(cyclopropanecarbonyl)-5-methoxy-2-azabicyclo[2.2.1]heptan-3-yl)-7-(2,3-dichlorophenyl)-6-fluoro-4-methyl-1H-pyrrolo[3,2-c]quinolin-8-yl)propanenitrile], the IC50 on KRAS G12D and at KRAS G12V was at most 100 nM each time.

As to `Cc1nc2c(F)c(-c3cccc(Cl)c3Cl)c(CCC#N)cc2c2c1cc([C@H]1[C@H]3C[C@H]([C@@H]4C[C@@H]43)N1C(=O)C1CC1)n2C1C2CNC1C2` (stereo partly drawn) [Example 24, 3-(1-(2-azabicyclo[2.1.1]hexan-5-yl)-2-((1S,2S,4R,5R,7R)-6-(cyclopropanecarbonyl)-6-azatricyclo[3.2.1.02,4]octan-7-yl)-7-(2,3-dichlorophenyl)-6-fluoro-4-methyl-1H-pyrrolo[3,2-c]quinolin-8-yl)propanenitrile], the IC50 on KRAS G12D and at KRAS G12V was at most 100 nM throughout.

Regarding `Cc1nc2c(F)c(-c3cccc(Cl)c3Cl)c(CCC#N)cc2c2c1cc([C@H]1[C@H]3C[C@H](C[C@@H]3OC(F)F)N1C(=O)C1CC1)n2[C@H]1[C@H]2CN[C@@H]1C2` (atropisomer, axis not shown; (Ra)) [Example 7, 3-((Ra)-1-((1R,4R,5S)-2-Azabicyclo[2.1.1]hexan-5-yl)-2-((1R,3R,4R,5S)-2-(cyclopropanecarbonyl)-5-(difluoromethoxy)-2-azabicyclo[2.2.1]heptan-3-yl)-7-(2,3-dichlorophenyl)-6-fluoro-4-methyl-1H-pyrrolo[3,2-c]quinolin-8-yl)propanenitrile], the IC50 on KRAS G12D and at KRAS G12V was at most 100 nM each time.

With `COC(=O)N1[C@@H]2C[C@@H]([C@@H](C(F)F)C2)[C@@H]1c1cc2c(C)nc3c(F)c(-c4cccc(Cl)c4Cl)c(CCC#N)cc3c2n1[C@H]1[C@H]2CN[C@@H]1C2` (atropisomer, axis not shown; (Ra)) [Example 43, Methyl (1R,3R,4S,5S)-3-((Ra)-1-((1R,4R,5S)-2-azabicyclo[2.1.1]hexan-5-yl)-8-(2-cyanoethyl)-7-(2,3-dichlorophenyl)-6-fluoro-4-methyl-1H-pyrrolo[3,2-c]quinolin-2-yl)-5-(difluoromethyl)-2-azabicyclo[2.2.1]heptane-2-carboxylate], the IC50 on KRAS G12D and at KRAS G12V was at most 100 nM throughout.

On to `CC(C)(O)c1ccc(-c2nc3c(F)c(-c4cccc(Cl)c4Cl)c(CCC#N)cc3c3c2cc([C@H]2[C@@H]4CC[C@@H](C4)N2C(=O)C2CC2)n3[C@H]2[C@H]3CN[C@@H]2C3)cn1` [Example 13, 3-(1-((1R,4R,5S)-2-azabicyclo[2.1.1]hexan-5-yl)-2-((1S,3R,4R)-2-(cyclopropanecarbonyl)-2-azabicyclo[2.2.1]heptan-3-yl)-7-(2,3-dichlorophenyl)-6-fluoro-4-(6-(2-hydroxypropan-2-yl)pyridin-3-yl)-1H-pyrrolo[3,2-c]quinolin-8-yl)propanenitrile], for which the IC50 on KRAS G12D and on KRAS G12V was at most 100 nM in each case.

Regarding `Cc1nc2c(F)c(-c3cccc(Cl)c3Cl)c(CCC#N)cc2c2c1cc([C@H]1[C@H]3C[C@H]([C@@H]4C[C@@H]43)N1C(=O)C1CC1)n2[C@H]1[C@H]2CN[C@@H]1C2` (atropisomer, axis not shown; (Ra)) [Example 3, 3-((Ra)-1-((1R,4R,5S)-2-Azabicyclo[2.1.1]hexan-5-yl)-2-((1S,2S,4R,5R,7R)-6-(cyclopropanecarbonyl)-6-azatricyclo[3.2.1.0^2,4]octan-7-yl)-7-(2,3-dichlorophenyl)-6-fluoro-4-methyl-1H-pyrrolo[3,2-c]quinolin-8-yl)propanenitrile], the IC50 on KRAS G12D and on KRAS G12V was at most 100 nM throughout.

For the origin of these results see patent US20240368156A1, “2-AZABICYCLO[2.2.1]HEPTANE KRAS INHIBITORS” (INCYTE CORPORATION, priority 2023, published 2024).
